How the values were obtained:
[1] = Stability of compounds 1 and 2 in MeOH stock solution and with biomass; assay type: physicochemical
Source text: No prodrug was detected in organs except for spleen during processing. […] The prodrugs may be converted to Sunitinib or other metabolite during processing or in vivo.

[2] = tested on: A549; NCI-H460; 786-O; Caki-1; HT-29; MCF-7; assay: 72 hour cytotoxicity (CCK8) in different cell lines; assay type: cell-based, human; settings: 72 hours, CCK8; FIG. 5a-f
Source text: A549 human non-small cell lung cancer cell line, NCI-H460 human non-small cell lung cancer cell line, 786-O human renal cell line, Caki-1 human renal cell line, HT-29 human colon cancer cell line, MDA-MB-231 human breast cancer cell line, and MCF-7 human breast cancer cell line was purchased from Chinese Academy of Science Shanghai Branch. PLC/PRF-5 human hepatoma cell line and Hepal-6 mouse hepatoma cell line were obtained from Institute of Biochemistry and Cell Biology, SIBS, CAS (SIBCB). Cell lines A549, Caki-1, HT-29, MDA-MB-231, MCF-7, PLC/PRF-5 and Hepal-6 were cultured in DMEM medium (Gibco, Life Technologies, China) and cell lines NCI-H460 and 786-O were cultured in RPMI-1640 medium (Gibco, Life Technologies, China). 10% HI fetal bovine serum was purchased from Gibco, Life Technologies, USA and 1% penicillin/streptomycin was obtained from Hyclone.
Approx. 2,000 cells in 50 μL complete medium were plated on each well of a 96-well plate and incubated at 37° C., 5% CO2 overnight. Drugs at concentrations of 0.02 to 10 μM were dissolved in 0.1% DMSO, followed by addition into each well. After incubation for 72 hours, 10 μL CCK8 (Dojindo) was added into each well, followed by incubation at 37° C. for another 4 hours. The OD values were obtained by TECAN Microplate Reader at 450 nm.
(§1) For in vitro tests, compounds were directly dissolved in 10 mM DMSO and stored at −20° C. For in vivo tests, the compounds were dissolved in DMSO and neutralized by Tween 80 (DMSO:Tween=1:1) and further neutralized by PBS (pH 7.4). The final concentrations of DMSO and Tween-80 were 5%.

[3] = Pharmacokinetics and organ distribution after intravenous administration of Sunitinib, Compound 1 and Compound 2 in mice; design: AUCiv: unit not given beside the values; settings: mice
Source text: Relative Exposure(RE)=AUCi sample/AUCi control
AUCi—area under curve for the i^th organ or tissue; RE>1 indicates targeting at the organ or tissue, with larger RE indicating greater targeting; RE≦1 indicates non-targeting.
RTE refers to the multiple of the percent of drug content in a tissue of sample group with respect to total drug amount in the body vs. that in a control group. Positive RTE values indicate enhanced targeting effects and the more positive the more the multiple of enhancement and the more the enhanced targeting. In contrast, negative RTE values indicate reduced targeting effects. Value 0 indicate no influence to the tissue.
0.083 h, 0.25 h, 0.5 h, 1 h, 3 h, 8 h post injection, blood was taken by eyeball removal and the mice were sacrificed by cervical dislocation. Tissues were perfused with normal saline and livers and kidneys were removed and cleaned with normal saline. The blood samples were centrifuged to obtain supernatants and stored at −20° C. 50 μL plasma sample and 50 μL internal standard (clozapine) working solution was vortexed with 300 μL MeOH and then centrifuged. 150 μL upper organic phase was obtained and mixed with 150 μL water, followed by centrifugation. 10 μL supernatant was sampled for analysis. The tissue samples were weighted and mixed homogeneously with 10 times weight of water. Since the samples were 10-time diluted, the concentration of the tissue would be 10 times the results determined. The heart tissue was 5-time diluted. 100 μL homogenate was mixed with 50 μL internal standard (clozapine) working solution and 300 μL MeOH and then centrifuged. 150 μL upper organic phase was obtained and mixed with 150 μL water, followed by centrifugation. 10 μL supernatant was sampled for analysis.

pSTAT3 = assay: Effects on STAT3 phosphorylation in A549 cell line; assay type: cell-based, human; settings: 10 μM
Protocol: as §1

[4] = Acute toxicity test: maximum tolerance dosage (MTD) determination; assay type: in vivo, BALB/c mice
Protocol: Methods: Femal BALB/c mice, 4-5 weeks old, weighted greater than 17 g, were used for the test. […] The body weights and conditions of the mice were recorded.
In contrast, the body weights of mice in compound 2 group increased 6.0% in average.
To further explore the toxicity of the compounds, blood was collected after 14-day treatment of drugs and critical biochemical index were analyzed.

cancer cell xenograft = assay: Pharmacodynamic tests on mice xenograft transplantation model; assay type: in vivo
Protocol: as §1
5×10^6 cancer cells were subcutaneously injected to the right side of mouse. Drug was intraperitoneally injected at dosages of 1.5 mg/kg, 7.5 mg/kg, 30 mg/kg to the mice, once a day, for 2 weeks when average tumor size reached 75 to 150 mm^3. The size of the tumor was measured every other day. […] Compound 1 had less efficacy.
We then performed the test through oral route. 5×10^6 cancer cells were subcutaneously injected to the right side of mouse. Drug was orally administered at dosages of 5 mg/kg, 15 mg/kg, 45 mg/kg to the mice, once a day, for 2 weeks when average tumor size reached 75 to 150 mm^3. The size of the tumor was measured every other day.

[5] = Oral route (intragastric gavage) study of Sunitinib and compounds 1 and 2 in mice; assay type: in vivo; design: AUCpo: unit not given beside the values; settings: mice, intragastric gavage
Source text: Animal experiments: 24 mice in each group were divided into 8 sub-groups.

786-O cell or A549 cell = assay: Cell morphology and survival rate after 4 to 8 hours incubation; assay type: cell-based, human
[6] = 5.13 mg/kg Compound 1, 5.32 mg/kg Compound 2, 5.14 mg/kg Sunitinib malate, All (sum of organs and plasma)
[7] = 5.13 mg/kg Compound 1, 5.32 mg/kg Compound 2, 5.14 mg/kg Sunitinib malate, heart
[8] = 5.13 mg/kg Compound 1, 5.32 mg/kg Compound 2, 5.14 mg/kg Sunitinib malate, kidney
[9] = 5.13 mg/kg Compound 1, 5.32 mg/kg Compound 2, 5.14 mg/kg Sunitinib malate, liver
[10] = 5.13 mg/kg Compound 1, 5.32 mg/kg Compound 2, 5.14 mg/kg Sunitinib malate, lung
[11] = 5.13 mg/kg Compound 1, 5.32 mg/kg Compound 2, 5.14 mg/kg Sunitinib malate, plasma
[12] = 5.13 mg/kg Compound 1, 5.32 mg/kg Compound 2, 5.14 mg/kg Sunitinib malate, spleen
[13] = oral once a day for 14 days, 175 mg/kg
[14] = repeated test, oral once a day, 200 mg/kg
[15] = 19.248 mg/kg Compound 1, 20 mg/kg Compound 2, 20 mg/kg Sunitinib malate

CCN(CC)CCNC(=O)c1c(C)[nH]c(C=C2C(=O)N(CC(=O)Oc3ccccc3)c3ccc(F)cc32)c1C [Compound 2, N-[2-(diethylamino)ethyl]-5-[(5-fluoro-2-oxo-1-(phenylcarboxymethyl)-2,3-indolin-3-ylmethylene)]-2,4-dimethyl-1H-pyrrolidine-3-carboxamide]
stability in the event of coexisting with biomass ([1]; coexisting with biomass): easy to degrade | stability in MeOH stock solution ([1]; stability test period: 7 days): stable | IC50 values among several cell lines [2]: comparable | tumor killing effects / cytotoxicity [2]: relatively strong tumor killing effects | AUC [3, 6]: 3926.9 ng·h/mL | Cmax [3, 6]: 2673.1 ng/mL | AUC [3, 7]: 97.0 ng·h/mL | Cmax [3, 7]: 122.4 ng/mL | AUC [3, 8]: 474.2 ng·h/mL | Cmax [3, 8]: 258.0 ng/mL | AUC [3, 9]: 1047.1 ng·h/mL | Cmax [3, 9]: 742.7 ng/mL | AUC [3, 10]: 1235.0 ng·h/mL | Cmax [3, 10]: 763.8 ng/mL | AUC [3, 11]: 408.8 ng·h/mL | AUCall [3, 11]: 408.8 ng·h/mL | Cl [3, 11]: 324.9 mL/h | Cmax [3, 11]: 564.4 ng/mL | Tmax [3, 11]: 4.8 min | V [3, 11]: 406.1 mL | AUC [3, 12]: 664.8 ng·h/mL | Cmax [3, 12]: 221.8 ng/mL | AUCiv ([3]; Div 3.86, in ng·h/mL): 408.8 | Cmax, times than that of the control ([3]; control = Sunitinib): approx. 5 times | RTE analysis: distribution proportions in organs ([3]; vs Sunitinib control): increased distribution proportions in spleen and lung, decreased proportions in heart and kidney but great enhancement in plasma | RE ([3]; vs Sunitinib control, heart): 0.13 | RTE ([3]; vs Sunitinib control, heart): −0.55 | RE ([3]; vs Sunitinib control, kidney): 0.16 | RTE ([3]; vs Sunitinib control, kidney): −0.45 | RE ([3]; vs Sunitinib control, liver): 0.47 | RTE ([3]; vs Sunitinib control, liver): 0.66 | RE ([3]; vs Sunitinib control, lung): 0.28 | RTE ([3]; vs Sunitinib control, lung): −0.01 | RE ([3]; vs Sunitinib control, plasma): 1.12 | RTE ([3]; vs Sunitinib control, plasma): 2.93 | RE ([3]; vs Sunitinib control, spleen): 0.22 | RTE ([3]; vs Sunitinib control, spleen): −0.23 | inhibition of pSTAT3 (pSTAT3): strong inhibition | critical biochemical index (AST, ALT, CHE, urate, blood urea nitrogen, glucose, LDH, CK, CKMB) ([4]; blood after 14-day treatment, 200 mg/kg): except for AST and ALT, these indices were all within normal ranges | body weights increased in average [4, 13]: 6.0% | condition of the mice [4, 13]: performed similarly with negative control group | influence on body weight ([4]; repeated test, oral once a day, 100 mg/kg): little influence on body weight | body weights increased in average [4, 14]: 6.0% | condition of the mice [4, 14]: performed similarly with negative control group | efficacy on tumor size (cancer cell xenograft; intraperitoneally injected 1.5, 7.5, 30 mg/kg once a day for 2 weeks): improved efficacy than Sunitinib | efficacy on tumor size (cancer cell xenograft; orally administered 5, 15, 45 mg/kg once a day for 2 weeks): improved efficacy than Sunitinib | AUC, times higher than Sunitinib [5]: approx. 3.5 times | AUC0→∞ [5, 15]: 61.5 ng·h/mL | Cl [5, 15]: 4094.7 mL/h | Cmax [5, 15]: 27.00 ng/mL | Tmax [5, 15]: 1.50 h | t1/2 [5, 15]: 3.89 h | AUCpo ([5]; Dpo 15.00, in ng·h/mL): 951.1 | cell survival (786-O cell or A549 cell; 786-O cell or A549 cell, incubated for 8 hours): mass cell death | cell morphology (786-O cell or A549 cell; cancer cells incubated for 4 hours): changed to round and suffered from stress

Source: patent US20180022734A1 (Sound Biopharmaceuticals Ltd., priority 2015, published 2018)
